According to the NIST ThermoML archive (doi:10.1021/acs.jced.8b00008):
Numbers after ± are expanded uncertainties.

Test: xn = mol fraction of the nth substance listed
Details: for viscosity / speed of sound / mass density: 102 kPa, Liquid; for viscosity: Concentric cylinders viscometry; for speed of sound: Single path-length method; for mass density: Vibrating tube method; for surface tension liquid-gas: 296 K, Pendant drop shape

CCC1CCCCC1 [ethylcyclohexane] + CCCCCCCCCCCCCCCC
Details	mass density [kg/m3]	speed of sound [m/s]	viscosity [mPa·s]
293.15 K, x1 = 0.0997	773.92 ± 0.32	1353.2 ± 0.5	3.17 ± 0.02
293.15 K, x1 = 0.1997	774.6 ± 0.32	1348.2 ± 0.5	2.87 ± 0.02
293.15 K, x1 = 0.3	775.39 ± 0.32	1343.1 ± 0.5	2.57 ± 0.02
293.15 K, x1 = 0.4	776.26 ± 0.32	1337.8 ± 0.5	2.26 ± 0.02
293.15 K, x1 = 0.4999	777.42 ± 0.32	1331.4 ± 0.6	1.99 ± 0.01
293.15 K, x1 = 0.55	778.05 ± 0.32	1328.1 ± 0.5	1.89 ± 0.01
293.15 K, x1 = 0.6	778.71 ± 0.32	1325.3 ± 0.5	1.73 ± 0.01
293.15 K, x1 = 0.7001	780.35 ± 0.32	1317.5 ± 0.5	1.48 ± 0.02
293.15 K, x1 = 0.8003	782.34 ± 0.32	1309.8 ± 0.5	1.25 ± 0.01
293.15 K, x1 = 0.9	784.8 ± 0.32	1301.6 ± 0.5	1.04 ± 0.01
303.15 K, x1 = 0.0997	766.96 ± 0.32	1315.5 ± 0.5	2.54 ± 0.02
303.15 K, x1 = 0.1997	767.62 ± 0.32	1310.3 ± 0.5	2.33 ± 0.02
303.15 K, x1 = 0.3	768.36 ± 0.32	1305.1 ± 0.5	2.1 ± 0.01
303.15 K, x1 = 0.4	769.18 ± 0.32	1299.6 ± 0.5	1.87 ± 0.01
303.15 K, x1 = 0.4999	770.25 ± 0.32	1292.9 ± 0.5	1.67 ± 0.01
303.15 K, x1 = 0.55	770.84 ± 0.32	1289.4 ± 0.5	1.58 ± 0.01
303.15 K, x1 = 0.6	771.45 ± 0.32	1286.4 ± 0.5	1.46 ± 0.01
303.15 K, x1 = 0.7001	772.96 ± 0.32	1277.9 ± 0.5	1.27 ± 0.01
303.15 K, x1 = 0.8003	774.78 ± 0.32	1269.5 ± 0.5	1.07 ± 0.01
303.15 K, x1 = 0.9	777.02 ± 0.32	1260.2 ± 0.5	0.896 ± 0.012
313.15 K, x1 = 0.0997	760.01 ± 0.32	1278.6 ± 0.5	2.07 ± 0.01
313.15 K, x1 = 0.1997	760.63 ± 0.32	1273.4 ± 0.5	1.9 ± 0.01
313.15 K, x1 = 0.3	761.32 ± 0.32	1268 ± 0.5	1.74 ± 0.01
313.15 K, x1 = 0.4	762.08 ± 0.32	1262.2 ± 0.5	1.56 ± 0.01
313.15 K, x1 = 0.4999	763.06 ± 0.32	1255.2 ± 0.5	1.4 ± 0.01
313.15 K, x1 = 0.55	763.61 ± 0.32	1251.5 ± 0.5	1.34 ± 0.01
313.15 K, x1 = 0.6	764.16 ± 0.32	1248.3 ± 0.5	1.24 ± 0.01
313.15 K, x1 = 0.7001	765.54 ± 0.32	1239.2 ± 0.5	1.08 ± 0.01
313.15 K, x1 = 0.8003	767.19 ± 0.32	1230 ± 0.5	0.93 ± 0.02
313.15 K, x1 = 0.9	769.2 ± 0.32	1219.7 ± 0.5	0.782 ± 0.012
323.15 K, x1 = 0.0997	753.07 ± 0.32	1242.7 ± 0.5	1.73 ± 0.01
323.15 K, x1 = 0.1997	753.64 ± 0.32	1237.2 ± 0.5	1.595 ± 0.013
323.15 K, x1 = 0.3	754.28 ± 0.32	1231.6 ± 0.5	1.46 ± 0.01
323.15 K, x1 = 0.4	754.97 ± 0.32	1225.6 ± 0.5	1.34 ± 0.01
323.15 K, x1 = 0.4999	755.86 ± 0.32	1218.3 ± 0.5	1.21 ± 0.01
323.15 K, x1 = 0.55	756.35 ± 0.32	1214.3 ± 0.5	1.15 ± 0.01
323.15 K, x1 = 0.6	756.84 ± 0.32	1211 ± 0.5	1.09 ± 0.01
323.15 K, x1 = 0.7001	758.08 ± 0.32	1201.2 ± 0.5	0.948 ± 0.012
323.15 K, x1 = 0.8003	759.55 ± 0.32	1191.3 ± 0.5	0.822 ± 0.021
323.15 K, x1 = 0.9	761.34 ± 0.32	1180 ± 0.5	0.693 ± 0.011
333.15 K, x1 = 0.0997	746.13 ± 0.32	1207.7 ± 0.5	1.46 ± 0.01
333.15 K, x1 = 0.1997	746.63 ± 0.32	1202.1 ± 0.5	1.355 ± 0.013
333.15 K, x1 = 0.3	747.21 ± 0.32	1196.2 ± 0.5	1.25 ± 0.01
333.15 K, x1 = 0.4	747.82 ± 0.32	1189.9 ± 0.5	1.16 ± 0.01
333.15 K, x1 = 0.4999	748.62 ± 0.32	1182.3 ± 0.5	1.03 ± 0.01
333.15 K, x1 = 0.55	749.06 ± 0.32	1178 ± 0.5	0.99 ± 0.01
333.15 K, x1 = 0.6	749.49 ± 0.32	1174.6 ± 0.5	0.937 ± 0.012
333.15 K, x1 = 0.7001	750.57 ± 0.32	1164.1 ± 0.5	0.821 ± 0.012
333.15 K, x1 = 0.8003	751.86 ± 0.32	1153.4 ± 0.5	0.716 ± 0.011
333.15 K, x1 = 0.9	753.41 ± 0.32	1141.2 ± 0.5	0.607 ± 0.011

Details	surface tension liquid-gas [mN/m]
x1 = 0.0997	26.8 ± 0.3
x1 = 0.1997	26.7 ± 0.3
x1 = 0.3	26.4 ± 0.3
x1 = 0.4	26.2 ± 0.3
x1 = 0.4999	26.3 ± 0.3
x1 = 0.55	26.2 ± 0.3
x1 = 0.6	26 ± 0.3
x1 = 0.7001	25.9 ± 0.3
x1 = 0.8003	25.7 ± 0.3
x1 = 0.9	25.4 ± 0.3
